Experimental data from patent US20120059053A1, “COMPOUNDS OF 2,3-DIHYDRO-BENZOFURAN” (FERRER INTERNATIONAL, S.A., priority 2007, published 2012).

Experiments:
[1] = Metabolic stability by disappearance of compound on incubation in human microsomes; conditions: 120 min, 1 μM
[2] = Levels in rat plasma after po administration; format: in vivo; conditions: 15 min after po administration of 1 mg/Kg
Brain/plasma ratio = conditions: in vivo

CCC(=O)NCC[C@@H]1CCc2ccc(OC)cc21 [(1S)-N-[2-(6-methoxy-indan-1-yl)-ethyl]-propionamide]
metabolic stability [1]: less than 30% | concentration at 15 min [2]: 10.1 ng/mL | brain/plasma ratio (Brain/plasma ratio): zero

COc1ccc2c(c1)C(CCNC(C)=O)CO2 (stereo not shown) [Example 1, N-[2-(5-methoxy-2,3-dihydro-benzofuran-3-yl)-ethyl]-acetamide]
concentration at 15 min [2]: 98 ng/mL
